Reference: patent US12569453B2, “Use of tapinarof for the treatment of atopic dermatitis” (Dermavant Sciences GmbH, priority 2018, dated 2026)

Key:
[1] = test system: adolescent and adult subjects with AD; test: Phase II AD study: safety and tolerability; type: in vivo, human
Protocol: Safety was assessed by the monitoring and recording of all AEs and serious adverse events (SAEs); evaluation of local (application site) tolerability; monitoring of hematology (including peripheral blood immunophenotyping and immunoglobulins), clinical chemistry, and vital signs; and the performance of ECGs and physical examinations.

[2] = rat subcutaneous 13-week toxicology study (NOAEL) and predicted safety margin; conditions: in vivo, sc, rat subcutaneous 3 mg/kg/day, read-out: NOAEL AUC(0-24)
Excerpt: The predicted maximum systemic exposure to Tapinarof in this study was expected to be lower than the no observed adverse effects level (NOAEL) identified in nonclinical toxicology studies.

[3] = minipig 28 day toxicology, formulation F (NOAEL); type: in vivo; conditions: 3% [60 mg/kg/day]
[4] = Japanese subjects, pooled active (n=30)
[5] = adolescent subjects, pooled active (n=49)
[6] = adult subjects, pooled active (n=116)
[7] = pooled active treatment groups (n=165)

With `CC(C)c1c(O)cc(/C=C/c2ccccc2)cc1O` [Tapinarof, 3,5-Dihydroxy-4-isopropyl-trans-stilbene] the Impetigo ([1]; 0.5% BID) was 0 n, the “Serious TEAEs” value ([1]; 0.5% BID) was 0 n and the “atopic dermatitis leading to study treatment discontinuation” value (from here on “atopic dermatitis leading”) ([1]; 0.5% BID) was 7%. For the same molecule, the “subjects with abnormal clinically significant ECGs at any post-screening visit” value ([1]; 0.5% BID) was 12%, the Nasopharyngitis ([1]; 0.5% BID, listed as GSK2894512) was 4 n and the Impetigo ([1]; 0.5% QD) was 0 n. The “Serious TEAEs” value ([1]; 0.5% QD) was 0 n, the “atopic dermatitis leading” value ([1]; 0.5% QD) was 2% and the “subjects with abnormal clinically significant ECGs at any post-screening visit” value ([1]; 0.5% QD) was 21%. For the same molecule, the Nasopharyngitis ([1]; 0.5% QD, listed as GSK2894512) was 1 n, the “subjects with abnormal clinically significant ECGs at any post-screening visit” value ([1]; 1% BID) was 30% and the Nasopharyngitis ([1]; 1% BID, listed as GSK2894512) was 3 n. For the same molecule, the Acne ([1]; 1% QD) was 0 n, the Dermatitis atopic ([1]; 1% QD) was 0 n and the “Discontinuous due to TEAEs” value ([1]; 1% QD) was 0 n. For the same molecule, the Impetigo ([1]; 1% QD) was 0 n, the “Serious TEAEs” value ([1]; 1% QD) was 0 n and the “subjects with abnormal clinically significant ECGs at any post-screening visit” value ([1]; 1% QD) was 24%. The Nasopharyngitis ([1]; 1% QD, listed as GSK2894512) was 5 n, the “subjects permanently discontinuing treatment due to TEAEs” value [1, 4] was 3% and the “subjects with mild TEAEs” value [1, 4] was 50%. The “subjects with moderate TEAEs” value [1, 4] was 10%, the “subjects with treatment-related TEAEs” value [1, 4] was 17% and the “atopic dermatitis AE, median duration” value ([1]; active treatment groups) was 12.5 days. The “atopic dermatitis AE, median time to onset” value ([1]; active treatment groups) was 40.5 days, the “headache, median duration” value ([1]; active treatment groups) was 2 days and the “headache, median time to onset” value ([1]; active treatment groups) was 2 days. For the same molecule, the “nasopharyngitis, median duration” value ([1]; active treatment groups) was 9 days, the “nasopharyngitis, median time to onset” value ([1]; active treatment groups) was 32 days and the “upper respiratory tract infection, median duration” value ([1]; active treatment groups) was 16.5 days. The “upper respiratory tract infection, median time to onset” value ([1]; active treatment groups) was 32.5 days, the “subjects permanently discontinuing treatment due to TEAEs” value [1, 5] was 6% and the “subjects with mild TEAEs” value [1, 5] was 41%. For the same molecule, the “subjects with moderate TEAEs” value [1, 5] was 14%, the “subjects with severe TEAEs” value [1, 5] was 2% and the “subjects with treatment-related TEAEs” value [1, 5] was 16%. For the same molecule, the “subjects permanently discontinuing treatment due to TEAEs” value [1, 6] was 3%, the “subjects with mild TEAEs” value [1, 6] was 28% and the “subjects with moderate TEAEs” value [1, 6] was 25%. For the same molecule, the “subjects with severe TEAEs” value [1, 6] was 3%, the “subjects with treatment-related TEAEs” value [1, 6] was 14% and the “folliculitis, median start date (since Day 1)” value ([1]; all cases in active treatment groups) was 17 days. For the same molecule, the “subjects with elevations in liver chemistries (ALT/AST >2×ULN)” value ([1]; all in Tapinarof treatment groups) was 6 subjects, the treatment-related atopic dermatitis ([1]; pooled active groups) was 1% and the Acne ([1]; pooled active groups (n=165)) was 4%. For the same molecule, the Impetigo ([1]; pooled active groups (n=165)) was 1%, the Nasopharyngitis ([1]; pooled active groups (n=165)) was 8% and the “atopic dermatitis (worsening/flare)” value ([1]; pooled active groups (n=165)) was 4%. For the same molecule, the “atopic dermatitis leading” value ([1]; pooled active groups (n=165)) was 2%, the folliculitis ([1]; pooled active groups (n=165)) was 11% and the headache ([1]; pooled active groups (n=165)) was 5%. For the same molecule, the “treatment-related application site pain” value ([1]; pooled active groups (n=165)) was 1%, the treatment-related folliculitis ([1]; pooled active groups (n=165)) was 5% and the “upper respiratory tract infection” value ([1]; pooled active groups (n=165)) was 7%. The “subjects permanently discontinuing treatment due to TEAEs” value [1, 7] was 4%, the “subjects with TEAEs” value [1, 7] was 56% and the “subjects with mild TEAEs” value [1, 7] was 32%. The “subjects with moderate TEAEs” value [1, 7] was 22%, the “subjects with severe TEAEs” value [1, 7] was 2% and the “subjects with treatment-related TEAEs” value [1, 7] was 15%. The “subjects with TEAEs considered related to treatment” value ([1]; treatment groups pooled) was 24 subjects, the “subjects with at least one AE” value ([1]; treatment groups pooled) was 97 subjects and the “subjects with at least one TEAE” value ([1]; treatment groups pooled) was 93 subjects. For the same molecule, the AUC(0-t) [2] was 99 ng·h/mL and the “gender averaged NOAEL Cmax” value [3] was 0.84 ng/mL.
